The values below come from ChEMBL document CHEMBL1151840, “Synthetic oligoribonucleotides containing arabinonucleotides act as agonists of TLR7 and 8” (Bioorg Med Chem Lett, 2009).

Data set [1] can be described thus: Stability in human serum assessed as full-length compound remaining after 10 mins by anion-exchange HPLC. It counts as ADME, cell-free. The conditions noted are these: read-out: Stability.
In data set [2] the target is T1, Toll-like receptor 8 (Homo sapiens) (UniProt Q9NR97).
T1 sequence (whole entry): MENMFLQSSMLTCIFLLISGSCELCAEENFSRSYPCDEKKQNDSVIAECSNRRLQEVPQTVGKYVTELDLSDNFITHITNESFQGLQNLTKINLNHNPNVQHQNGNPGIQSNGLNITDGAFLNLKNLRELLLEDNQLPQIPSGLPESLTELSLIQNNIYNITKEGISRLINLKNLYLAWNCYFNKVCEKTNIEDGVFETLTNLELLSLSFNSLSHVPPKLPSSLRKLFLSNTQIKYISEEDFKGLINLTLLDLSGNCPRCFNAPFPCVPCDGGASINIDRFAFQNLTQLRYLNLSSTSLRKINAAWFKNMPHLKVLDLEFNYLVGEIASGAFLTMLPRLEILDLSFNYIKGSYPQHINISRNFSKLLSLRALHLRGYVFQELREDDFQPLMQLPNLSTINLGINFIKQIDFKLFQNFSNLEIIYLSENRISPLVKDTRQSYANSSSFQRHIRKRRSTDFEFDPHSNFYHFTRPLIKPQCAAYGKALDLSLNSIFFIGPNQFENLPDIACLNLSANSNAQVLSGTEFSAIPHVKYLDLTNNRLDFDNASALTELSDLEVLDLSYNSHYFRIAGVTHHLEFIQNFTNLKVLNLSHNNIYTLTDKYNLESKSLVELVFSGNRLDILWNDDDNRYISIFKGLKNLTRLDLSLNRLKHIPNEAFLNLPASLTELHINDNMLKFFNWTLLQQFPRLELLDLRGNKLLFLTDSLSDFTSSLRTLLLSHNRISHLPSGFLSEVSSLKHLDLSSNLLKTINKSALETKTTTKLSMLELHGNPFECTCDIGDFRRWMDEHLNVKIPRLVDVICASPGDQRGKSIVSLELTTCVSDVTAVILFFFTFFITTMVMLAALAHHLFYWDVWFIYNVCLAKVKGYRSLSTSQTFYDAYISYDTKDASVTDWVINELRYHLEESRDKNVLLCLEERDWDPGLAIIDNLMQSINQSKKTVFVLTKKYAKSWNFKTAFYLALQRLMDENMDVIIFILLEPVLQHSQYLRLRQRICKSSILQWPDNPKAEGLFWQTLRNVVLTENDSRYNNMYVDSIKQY
Kind of data set: Agonist activity at human TLR8 expressed in HEK293XL cells assessed as NF-kappaB activation after 18 hrs. It counts as functional, cell-based.

Data set [3] concerns the target T2, Toll-like receptor 7 (Homo sapiens) (UniProt Q9NYK1).
T2 sequence (whole entry): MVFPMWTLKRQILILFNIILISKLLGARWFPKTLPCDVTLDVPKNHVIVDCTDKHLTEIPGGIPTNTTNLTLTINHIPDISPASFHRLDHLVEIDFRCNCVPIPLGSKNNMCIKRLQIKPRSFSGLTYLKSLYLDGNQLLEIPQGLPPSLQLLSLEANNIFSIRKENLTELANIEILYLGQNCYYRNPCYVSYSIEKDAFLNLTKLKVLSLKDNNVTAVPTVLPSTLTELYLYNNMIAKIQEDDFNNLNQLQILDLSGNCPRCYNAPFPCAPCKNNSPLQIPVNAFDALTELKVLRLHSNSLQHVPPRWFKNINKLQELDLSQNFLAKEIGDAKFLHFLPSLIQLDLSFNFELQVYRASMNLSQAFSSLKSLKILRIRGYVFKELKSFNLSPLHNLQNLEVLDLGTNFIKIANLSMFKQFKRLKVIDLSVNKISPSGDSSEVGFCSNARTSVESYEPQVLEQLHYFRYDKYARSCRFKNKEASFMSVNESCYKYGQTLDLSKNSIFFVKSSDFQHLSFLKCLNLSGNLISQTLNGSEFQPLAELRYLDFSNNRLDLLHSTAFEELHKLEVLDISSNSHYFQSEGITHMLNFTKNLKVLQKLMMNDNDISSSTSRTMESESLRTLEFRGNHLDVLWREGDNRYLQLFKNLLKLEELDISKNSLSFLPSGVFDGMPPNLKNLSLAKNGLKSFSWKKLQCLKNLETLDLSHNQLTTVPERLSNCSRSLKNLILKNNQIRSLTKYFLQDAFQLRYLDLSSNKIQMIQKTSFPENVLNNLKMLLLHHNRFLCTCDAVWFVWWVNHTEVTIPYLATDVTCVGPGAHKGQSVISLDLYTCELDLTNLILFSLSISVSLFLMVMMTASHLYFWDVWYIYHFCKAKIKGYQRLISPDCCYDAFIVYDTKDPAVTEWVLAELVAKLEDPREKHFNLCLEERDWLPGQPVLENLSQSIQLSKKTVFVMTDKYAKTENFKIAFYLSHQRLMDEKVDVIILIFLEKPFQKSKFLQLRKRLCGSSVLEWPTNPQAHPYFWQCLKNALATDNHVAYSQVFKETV
Kind of data set: Agonist activity at human TLR7 expressed in HEK293XL cells assessed as NF-kappaB activation after 18 hrs. It counts as functional, cell-based.

The subject of data set [4] is PBMC. The data set can be described thus: Stimulation of immune response in human PBMC assessed as induction of IL1-beta production at 150 ug/ml after 24 hrs. It counts as functional, cell-based.
The test system of data set [5] is PBMC. Kind of data set: Stimulation of immune response in human PBMC assessed as induction of IL2R level at 150 ug/ml after 24 hrs. Format: functional, cell-based.
In data set [6] the test system is PBMC. Kind of data set: Stimulation of immune response in human PBMC assessed as induction of IL8 production at 150 ug/ml after 24 hrs. Format: functional, cell-based.
Data set [7] concerns PBMC. Kind of data set: Stimulation of immune response in human PBMC assessed as induction of IL10 production at 150 ug/ml after 24 hrs. Format: functional, cell-based.
Data set [8] relates to PBMC. Kind of data set: Stimulation of immune response in human PBMC assessed as induction of IL12 production at 150 ug/ml after 24 hrs. Format: functional, cell-based.
For data set [9], the system named is PBMC. Kind of data set: Stimulation of immune response in human PBMC assessed as induction of IFNalpha production at 150 ug/ml after 24 hrs. It counts as functional, cell-based.
For data set [10], the system named is PBMC. Kind of data set: Stimulation of immune response in human PBMC assessed as induction of IFN-gamma production at 150 ug/ml after 24 hrs. It counts as functional, cell-based.
The subject of data set [11] is PBMC. The data set can be described thus: Stimulation of immune response in human PBMC assessed as induction of MCP1 production at 150 ug/ml after 24 hrs. Format: functional, cell-based.
Data set [12] has as its system PBMC. The data set can be described thus: Stimulation of immune response in human PBMC assessed as induction of RANTES production at 150 ug/ml after 24 hrs. It counts as functional, cell-based.
Data set [13] relates to PBMC. Kind of data set: Stimulation of immune response in human PBMC assessed as induction of MIP1alpha production at 150 ug/ml after 24 hrs. Format: functional, cell-based.
Data set [14] relates to PBMC. The data set can be described thus: Stimulation of immune response in human PBMC assessed as induction of MIP1beta production at 150 ug/ml after 24 hrs. Format: functional, cell-based.
In data set [15] the test system is PBMC. Kind of data set: Stimulation of immune response in human PBMC assessed as induction of TNFalpha production at 150 ug/ml after 24 hrs. Format: functional, cell-based.
For data set [16], the species on record is Homo sapiens. Kind of data set: Stimulation of immune response in human pDC assessed as induction of IFN-gamma production at 150 ug/ml after 24 hrs. Format: functional.
For data set [17], the species on record is Homo sapiens. Kind of data set: Stimulation of immune response in human pDC assessed as induction of IFNalpha production at 150 ug/ml after 24 hrs. It counts as functional.
The species named for data set [18] is Homo sapiens. Kind of data set: Stimulation of immune response in human pDC assessed as induction of IL12 production at 150 ug/ml after 24 hrs. It counts as functional.
Data set [19] is filed under the species Homo sapiens. The data set can be described thus: Stimulation of immune response in human pDC assessed as induction of TNFalpha production at 150 ug/ml after 24 hrs. It counts as functional.
Data set [20] is filed under the species Homo sapiens. Kind of data set: Stimulation of immune response in human pDC assessed as induction of MIP1alpha production at 150 ug/ml after 24 hrs. It counts as functional.
Data set [21] is filed under the species Homo sapiens. Kind of data set: Stimulation of immune response in human pDC assessed as induction of MIP1beta production at 150 ug/ml after 24 hrs. It counts as functional.
Data set [22] relates to Mus musculus. Kind of data set: Stimulation of immune response in C57BL/6 mouse assessed as induction of serum IL12 production at 50 mg/kg, sc after 2 hrs by luminex multiplex assay. It counts as functional, organism-based. More on the design: dose 50 mg/kg.

Active and inactive are the calls of the source. The calls are words filed in the database; no cut-off is given here.

In the case of `Nc1ncnc2c1ncn2[C@@H]1O[C@H](CO)[C@@H](OP(=O)(S)OC[C@H]2O[C@@H](n3cnc4c(N)ncnc43)[C@H](O)[C@@H]2OP(=O)(S)OC[C@H]2O[C@@H](n3cnc4c(N)ncnc43)[C@H](O)[C@@H]2OP(=O)(S)OC[C@H]2O[C@@H](n3cnc4c(N)ncnc43)[C@H](O)[C@@H]2OP(=O)(S)OC[C@H]2O[C@@H](n3cnc4c(N)ncnc43)[C@H](O)[C@@H]2OP(=O)(S)OC[C@H]2O[C@@H](n3cnc4c(N)ncnc43)[C@H](O)[C@@H]2OP(=O)(S)OC[C@H]2O[C@@H](n3cnc4c(N)ncnc43)[C@H](O)[C@@H]2OP(=O)(S)OC[C@H]2O[C@@H](n3cnc4c(N)ncnc43)[C@H](O)[C@@H]2OP(=O)(S)OC[C@H]2O[C@@H](n3cnc4c(N)ncnc43)[C@H](O)[C@@H]2OP(=O)(S)OC[C@H]2O[C@@H](n3cnc4c(N)ncnc43)[C@H](O)[C@@H]2OP(=O)(S)OC[C@H]2O[C@@H](n3cnc4c(N)ncnc43)[C@H](O)[C@@H]2OP(=O)(S)OCC(O)COP(=O)(S)O[C@H]2[C@@H](O)[C@H](n3cnc4c(N)ncnc43)O[C@@H]2COP(=O)(S)O[C@H]2[C@@H](O)[C@H](n3cnc4c(N)ncnc43)O[C@@H]2COP(=O)(S)O[C@H]2[C@@H](O)[C@H](n3cnc4c(N)ncnc43)O[C@@H]2COP(=O)(S)O[C@H]2[C@@H](O)[C@H](n3cnc4c(N)ncnc43)O[C@@H]2COP(=O)(S)O[C@H]2[C@@H](O)[C@H](n3cnc4c(N)ncnc43)O[C@@H]2COP(=O)(S)O[C@H]2[C@@H](O)[C@H](n3cnc4c(N)ncnc43)O[C@@H]2COP(=O)(S)O[C@H]2[C@@H](O)[C@H](n3cnc4c(N)ncnc43)O[C@@H]2COP(=O)(S)O[C@H]2[C@@H](O)[C@H](n3cnc4c(N)ncnc43)O[C@@H]2COP(=O)(S)O[C@H]2[C@@H](O)[C@H](n3cnc4c(N)ncnc43)O[C@@H]2COP(=O)(S)O[C@H]2[C@@H](O)[C@H](n3cnc4c(N)ncnc43)O[C@@H]2COP(=O)(S)O[C@H]2[C@@H](O)[C@H](n3cnc4c(N)ncnc43)O[C@@H]2CO)[C@H]1O` (some centres not stated), the remaining at 10 min in data set [1] was 90%. For the same molecule, the result in data set [2], in [3], in [4], in [5], in data set [6] and in data set [7] was inactive. Besides, the result in data set [8], in data set [9], in [10], in data set [11], in [12] and in data set [13] was inactive. For the same molecule, the outcome in data set [14], in data set [15], in [16], in data set [17], in data set [18] and in data set [19] was inactive. In addition, the result in data set [20], in data set [21] and in [22] was inactive.
